Values after ≈ are worked out from the molar mass of the structure shown.
Key:
In vitro DPPH test = details: for DPPH (% Inhibition): compounds at 1 mg/mL, 30 min, 517 nm
Procedure: The assay performed is adapted from Wang et al.. Briefly, 0.750 mL of 1 mg/mL solutions of the tested compounds was treated with 1.5 mL of DPPH solution in MeOH. The absorbance of samples, stored for 30 min at room temperature in the dark, was read on the spectrophotometer at 517 nm. The values obtained were converted into a radical inhibition percentage (%) by Equation (1). DPPH radical scavenging capacity (%) = [1 − A1/A0] × 100%(1) where A0 and A1 were, respectively, the absorbance without and with the sample. Subsequently, the compound with the best profile was tested in order to determine the IC50 (µg/mL). A linear regression plot is performed to calculate the actual sample concentration required to eliminate 50% of the DPPH free radicals.
The antioxidant activity of a molecule is very important and, if present, it can be synergistic with the SPF described above in reducing the damage that is ROS-induced by UV rays. For this reason, the synthesized compounds were assayed in vitro to assess their antioxidant profiles by means of the DPPH and FRAP assays (Table 2). Regarding the ability to scavenge the stable radical 2,2-diphenyl-1-picrylhydrazyl (DPPH), it was decided to investigate first the compounds synthesized at the same concentration (1 mg/mL) and evaluate the percentage of inhibition of the radical DPPH.

Epidermophyton floccosum = assay: Antidermatophyte activity, plaque growth inhibition; format: cell-based, Epidermophyton floccosum var. floccosum CBS 358.93; details: 100 μg/mL, SDA, read-out: % Inhibition Growth E. floccosum
Procedure: (§1) The dermatophytes used in this study were Epidermophyton floccosum var. floccosum (Netherlands) CBS 358.93 strain, Trichophyton tonsurans (Netherlands) CBS 483.76 strain, Trichophyton mentagrophytes (Netherlands) CBS 160.66 strain, Microsporum canis (Iran) CBS 131,110 strain, and Microsporum gypseum (Iran) CBS 130,948 strain. All dermatophytes were maintained at 4 °C as agar slants on SDA. Candida albicans (ATCC 10231) was maintained at 4 °C on SDA plate.
(§2) The in vitro antifungal activity against the five selected dermatophytes was evaluated, as previously described, using the plaque growth inhibition method. All compounds were evaluated at the final concentration of 100 µg/mL. The percentages of growth inhibition according to Equation (5) were calculated as the average of three different experiments. I = [(C − T)/C] × 100%,(5) where I is the percentage value of growth inhibition, C is the measure of the diameter of the control circular mycelial inoculum (mm) and T is the extended diameter of the treated mycelial inoculum (mm).
(§3) All synthesized benzothiazole derivatives were evaluated to evaluate their in vitro antifungal activity against the five pathogenic dermatophytes that cause the most common dermatomycoses: Microsporum gypseum, Microsporum canis, Trichophyton mentagrophytes, Trichophyton tonsurans and Epidermophyton floccosum. All compounds were tested at a concentration of 100 µg/mL in DMSO, to evaluate the ability to inhibit the growth of dermatophyte cultures in Sabouraud Dextrose Agar (SDA). Briefly, room temperature incubation was performed and dermatophyte inhibition assessed by measuring the colony diameter at each disc for 7 days. The results are shown in Table 3 and were determined as the average of three different experiments.

[1] = tested on: Candida albicans (ATCC 10231); assay: Anti-Candida albicans activity, broth microdilution MIC; format: cell-based; details: for MIC: Candida albicans, ATCC10231, 24 h of incubation; for activity against Candida albicans: after 24 h
Procedure: as §1
The suspension of Candida albicans consists of the dispersion of an aliquot in 5 mL of sterilized water. The compounds and fluconazole, used as a positive control, were solubilized in DMSO (12.80 mg/mL) as stock solutions. Minimum inhibitory concentration (MIC) was performed by the broth microdilution method according to the approved standard M27-A3, 2008 [NCCLS] of the Clinical and Laboratory Standards Institute/National Committee for Clinical Laboratory Standards (CLSI/NCCLS), as described previously.
Candida is a strain of fungi known to transmit infections to different parts of the human body, including the skin [43], which is why the synthesized compounds have also been tested against Candida Albicans (ATCC 10231). For each of them the minimum inhibitory concentration (MIC) was determined by the broth microdilution method using RPMI 1640 + MOPS as culture medium. […] Fluconazole was used as a positive control drug. […] Similarly to the results observed on dermatophytes, therefore, the unsubstituted compounds in position 6 of benzimidazole gave activity on yeasts, except for compound 8a.

dermatophytes [2] = assay: Antidermatophyte activity, all tested dermatophytes together; format: cell-based; details: read-out: percentages of inhibition of growth, all five dermatophytes
Procedure: as §2, §3

dermatophytes [3] = tested on: dermatophytes; design: method as in PMID 32967192; details: cited from earlier work

Row | Compound | DPPH (% Inhibition) (In vitro DPPH test) [%] | inhibition at 100 µg/mL (Epidermophyton floccosum) [%] | MIC [1] [µg/mL] | activity against Candida albicans [1] | inhibition at 100 µg/mL (dermatophytes [2]) [%] | DPPH IC50 (In vitro DPPH test) [µg/mL] | IC50 towards the tested dermatophytes (dermatophytes [3])
1 | c1c[nH]c(-c2nc3ccccc3s2)c1 [Compound 8a, 2-(1H-Pyrrol-2-Yl)benzothiazole] | 29.17 ± 1.05 | 26 ± 0.66 | – | – | – | – | –
2 | c1coc(-c2nc3ccccc3s2)c1 [Compound 9a, 2-(Furan-2-Yl)benzothiazole] | 24.69 ± 0.14 | 68.85 ± 0.54 | 32 (≈ 159 µM) | showed activity against Candida albicans after 24 h | 50 to 75 | – | –
3 | c1csc(-c2nc3ccccc3s2)c1 [Compound 10a, 2-(Thiophen-2-Yl)benzothiazole] | 85.00 ± 0.88 | 54.1 ± 0.75 | 64 (≈ 294 µM) | showed activity against Candida albicans after 24 h | 50 to 75 | – | –
4 | NS(=O)(=O)c1ccc2nc(-c3cccs3)sc2c1 [Compound 10c, 2-(Thiophen-2-Yl)benzothiazole-6-Sulfonamide] | 21.82 ± 0.06 | 10.7 ± 0.31 | – | – | – | – | –
5 | c1c[nH]c(-c2nc3ccccc3[nH]2)c1 [Lead 10, reference compound] | 70.00 ± 3.25 | 102 ± 4.92 | – | – | – | 64 ± 3 | lower than 2 µg/mL
